From US12527774B2, “Estrogen-related receptor alpha modulators” (LEAD PHARMA HOLDING B.V., priority 2019, dated 2026)

How the values were obtained:
[1] = molecular target: ERRα ligand binding domain (ERRα-LBD) (Homo sapiens (Human), UniProt P11474); assay: ERRα AlphaScreen Assay; assay type: biochemical; details: disruption of binding of ERRα-LBD protein to biotin-PGC1α-3 co-activator peptide; for IC50: read-out: mean pIC50 (converted)
Outline: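 Disruption of co-activator binding read by AlphaScreen: compounds in triplicate, 1% DMSO, Tris pH 7.5 buffer, room temperature. Bacterially expressed 6His-SUMO-ERRα-LBD at 0.81 nM with beads for 1 h, then 15 nM biotinylated PGC1α peptide for 2 h. IC50 from four-parameter fits, averaged as pIC50.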

[2] = molecular target: full length ERRα (Homo sapiens (Human), UniProt P11474); assay: Full Length ERRα Reporter Gene Assay; assay type: cell-based; details: SK-BR-3 cells, ERRα-RE luciferase reporter, overnight incubation; read-out: mean pIC50 (converted)
Excerpt: Full Length ERRα Reporter Gene Assay
A method was established to quantitatively screen the potency of compounds with inverse agonistic activity on the nuclear receptor ERRα of the human species. The assay allows intra-cellular screening of ERRα inverse agonists in SK-BR-3 cells using an over-expression construct coding full length ERRα and a reporter construct containing an ERRα Response Element (RE) and a luciferase gene for read out. The activity is expressed in log IC50 values and can be used to determine SAR of compound families or to de-select compounds.
In this assay, reporter cells are obtained by transient co-transfection of two constructs in SK-BR-3 cells using standard transfection techniques. The first construct contains a response element of the nuclear receptor ERRα (Plasmid pLP2175, Reporter construct ERRα-RE/luc2P, cloned variant of ERRα_v2_synthRE, Switchgear Genomics, Catalog Number S900089). This sequence drives the transcription of the luciferase reporter gene in response to binding of an ERRα protein encoded by the second construct (Plasmid pLP2124: full length ERRα expression construct using pcDNA3.1/Hygro(+) as background, Invitrogen Catalog Number V87020).
The day after transfection, cells were plated into 96 well plates, test compound was added and the plates were incubated overnight. Subsequently, the firefly luciferase activity was quantified using luciferase detection reagent and luminescence readout.
Detailed Assay Description
Transfection is performed on pre-seeded SK-BR-3 cells in a T175 flask. One transfected T175 flask is sufficient for seeding 3 to 4 MW96 plates the next day, depending on the confluency of the transfected cells.
Two different media are used in this protocol for cell treatment: 1) Culture medium, i.e. McCoy's 5a with phenol red (BioWhittaker Supplier Number 12-688F), 10% FBS and 1× Penstrep.; and, 2) Assay medium, i.e. McCoy's 5a Medium phenol red free (HyClone Product Code SH30270.01) with 2% Charcoal Stripped FBS and 1× Penstrep. Compound dilutions are prepared in assay medium.
Cells are seeded at least 2 days in advance to allow the cells to adhere well to flask before transfection. Cells should be 50-80% confluent at the day of transfection.
SKBR3 cells were transfected with the transcriptional reporter construct pLP2175 and the ERRα expression construct pLP2124 (as described above).
68 μL of Lipofectamine LTX transfection reagent (Invitrogen Catalog Number 15338-100) was added dropwise to 8.9 ml Opti-MEM I Reduced Serum Medium (Gibco Catalog Number 51985-026) and incubated at room temperature for 5 to 20 minutes. 8.9 ml of this reagent mixture was added to 22 μg pLP2175+22 μg pLP2124 (ratio 1:1 and total volume 10 ml), and incubated at room temperature for 25 minutes.
10 minutes before adding the transfection mix to SKBR3 cells in a T175 flask, the culture medium was refreshed with 20 mL culture medium. Subsequently, the 10 mL DNA-Opti-MEM-Lipofectamine mixture was gently added to the cells, followed by overnight (16-24 hours) incubation at 37° C. and 5% CO2.
To harvest SKBR3 cells from a T175 flask, first the medium was removed. Subsequently, cells were washed with Phosphate Buffered Saline (PBS) (Lonza), after which the PBS was removed. To dissociate the cells, 2 ml of TrypLE Express (Invitrogen) was added to the flask, followed by incubation at 37° C. for 5 minutes. The flask was tapped until cells were detached from the bottom. Cells were collected in 8 mL of culture medium (McCoy's 5α, 10% FBS, penstrep), to achieve a single cell suspension. After cell count, cells were spun down for 5 minutes at 300 g. Next cell pellets were re-suspended to 25000 cells/80 μl assay medium (McCoy's 5a phenol red free, 2% charcoal stripped FBS, penstrep).
For compound screening, the cells were harvested (as described above). 80 μL of cell suspension (25,000 cells) was plated per well into a white, flat bottom, tissue culture treated, 96 well screening plates (Greiner). […]

Chain of full length ERRα (P11474 whole entry): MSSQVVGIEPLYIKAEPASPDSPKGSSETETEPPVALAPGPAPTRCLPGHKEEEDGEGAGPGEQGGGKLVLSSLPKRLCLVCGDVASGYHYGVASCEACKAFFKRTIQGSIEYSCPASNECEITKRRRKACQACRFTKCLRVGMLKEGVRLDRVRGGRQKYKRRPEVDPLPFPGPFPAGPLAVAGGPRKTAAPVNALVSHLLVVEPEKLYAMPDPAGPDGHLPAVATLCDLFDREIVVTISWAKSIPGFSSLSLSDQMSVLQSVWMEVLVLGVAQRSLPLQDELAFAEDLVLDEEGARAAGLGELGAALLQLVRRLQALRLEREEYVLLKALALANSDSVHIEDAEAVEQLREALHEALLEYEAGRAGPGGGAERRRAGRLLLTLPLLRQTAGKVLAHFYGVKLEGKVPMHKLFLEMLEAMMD
Chain of ERRα ligand binding domain (ERRα-LBD) (P11474 193-421): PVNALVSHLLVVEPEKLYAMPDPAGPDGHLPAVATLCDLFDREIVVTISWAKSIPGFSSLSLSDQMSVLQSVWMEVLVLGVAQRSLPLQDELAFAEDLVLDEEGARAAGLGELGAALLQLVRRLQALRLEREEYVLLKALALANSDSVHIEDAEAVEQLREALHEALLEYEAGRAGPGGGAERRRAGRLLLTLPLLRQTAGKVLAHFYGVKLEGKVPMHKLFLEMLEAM

| Compound | mean pIC50 [1] | IC50 [2] [µM] | IC50 [1] [µM] |
| --- | --- | --- | --- |
| COc1cc(C2CC(=O)Nc3n[nH]cc32)ccc1OCc1ccc(CCO)cc1C(F)(F)F (stereo not drawn) [Example 155, 4-(4-{[4-(2-hydroxyethyl)-2-(trifluoromethyl)phenyl]methoxy}-3-methoxyphenyl)-2H,4H,5H,6H, 7H-pyrazolo[3,4-b]pyridin-6-one] | ≥ 8 | ≤ 0.316 |  |
| O=C1CC(c2ccc(COc3ccc(Br)cc3C(F)(F)F)c(OC(F)(F)F)c2)c2c[nH]nc2N1 (stereo not drawn) [Example 106, 4-(4-{[4-bromo-2-(trifluoromethyl)phenoxy]methyl}-3-(trifluoromethoxy)phenyl)-2H,4H,5H,6H,7H-pyrazolo[3,4-b]pyridin-6-one] |  | ≤ 0.316 | 0.01 to 0.1 |
| COc1cc(C2CC(=O)Nc3n[nH]cc32)ccc1COc1ccc(C(F)F)cc1C(F)(F)F (stereo not drawn) [Example 115, 4-(4-{[4-(difluoromethyl)-2-(trifluoromethyl)phenoxy]methyl}-3-methoxyphenyl)-2H,4H,5H,6H,7H-pyrazolo[3,4-b]pyridin-6-one] | ≥ 8 | ≤ 0.316 |  |
| COc1cc(C2CC(=O)Nc3n[nH]nc32)ccc1OCc1ccc(CCO)cc1C(F)(F)F (stereo not drawn) [Example 157, 7-(4-{[4-(2-hydroxyethyl)-2-(trifluoromethyl)phenyl]methoxy}-3-methoxyphenyl)-2H,4H,5H,6H, 7H-[1,2,3]triazolo[4,5-b]pyridin-5-one] | ≥ 8 | ≤ 0.316 |  |
| COc1cc(C2CC(=O)Nc3n[nH]cc32)ccc1OCc1ccccc1C(C)(C)C (stereo not drawn) [Example 40, 4-{4-[(2-tert-butylphenyl)methoxy]-3-methoxyphenyl}-2H,4H,5H,6H,7H-pyrazolo[3,4-b]pyridin-6-one] | ≥ 8 | ≤ 0.316 |  |
| COc1cc(C2CC(=O)Nc3[nH]cnc32)ccc1OCc1ccccc1C(F)(F)F (stereo not drawn) [Example 89, 7-(3-methoxy-4-{[2-(trifluoromethyl)phenyl]methoxy}phenyl)-3H,4H,5H,6H, 7H-imidazo[4,5-b]pyridin-5-one] | ≥ 8 | ≤ 0.316 |  |
| O=C1CC(c2ccc(OCc3ccccc3C(F)(F)F)c(OC(F)F)c2)c2c[nH]nc2N1 (stereo not drawn) [Example 68, 4-[3-(difluoromethoxy)-4-{[2-(trifluoromethyl)phenyl]methoxy}phenyl]-2H,4H,5H,6H, 7H-pyrazolo[3,4-b]pyridin-6-one] | ≥ 8 | ≤ 0.316 |  |
| COc1cc(C2CC(=O)Nc3n[nH]cc32)ccc1OCc1ccc(C#CCO)cc1C(F)(F)F (stereo not drawn) [Example 146, 4-(4-{[4-(3-hydroxyprop-1-yn-1-yl)-2-(trifluoromethyl)phenyl]methoxy}-3-methoxyphenyl)-2H,4H,5H,6H, 7H-pyrazolo[3,4-b]pyridin-6-one] | ≥ 8 | ≤ 0.316 |  |
| COc1cc(C2CC(=O)Nc3n[nH]nc32)ccc1OCc1ccc(C(C)=O)cc1C(F)(F)F (stereo not drawn) [Example 93, 7-(4-{[4-acetyl-2-(trifluoromethyl)phenyl]methoxy}-3-methoxyphenyl)-2H,4H,5H,6H,7H-[1,2,3]triazolo[4,5-b]pyridin-5-one] |  | ≤ 0.316 | 0.01 to 0.1 |
| COc1cc(C2CC(=O)Nc3n[nH]cc32)ccc1OCc1ccc(C2CC2)cc1C(F)(F)F (stereo not drawn) [Example 145, 4-(4-{[4-cyclopropyl-2-(trifluoromethyl)phenyl]methoxy}-3-methoxyphenyl)-2H,4H,5H,6H, 7H-pyrazolo[3,4-b]pyridin-6-one] | ≥ 8 | ≤ 0.316 |  |
| CCOc1cc(C2CC(=O)Nc3n[nH]cc32)ccc1OCc1ccccc1C(F)(F)F (stereo not drawn) [Example 62, 4-(3-ethoxy-4-{[2-(trifluoromethyl)phenyl]methoxy}phenyl)-2H,4H,5H,6H, 7H-pyrazolo[3,4-b]pyridin-6-one] | ≥ 8 | ≤ 0.316 |  |
| O=C1CC(c2ccc(COc3ccccc3S(F)(F)(F)(F)F)c(OC(F)(F)F)c2)c2c[nH]nc2N1 (stereo not drawn) [Example 107, 4-(4-{[2-(pentafluoro-λ^6-sulfanyl)phenoxy]methyl}-3-(trifluoromethoxy)phenyl)-2H,4H,5H,6H, 7H-pyrazolo[3,4-b]pyridin-6-one] |  | ≤ 0.316 | 0.01 to 0.1 |
| COc1cc(C2CC(=O)Nc3n[nH]cc32)ccc1OCc1ccc(CC#N)cc1C(F)(F)F (stereo not drawn) [Example 147, 2-[4-(2-methoxy-4-{6-oxo-2H,4H,5H,6H, 7H-pyrazolo[3,4-b]pyridin-4-yl}phenoxymethyl)-3-(trifluoromethyl)phenyl]acetonitrile] |  | ≤ 0.316 | 0.1 to 1 |

The next lines start with the values.

| mean pIC50 [1] | IC50 [2] [µM] | IC50 [1] [µM] | Compound |
| --- | --- | --- | --- |
| ≥ 8 | ≤ 0.316 |  | COc1cc(C2CC(=O)Nc3n[nH]cc32)ccc1COc1ccc(C)cc1C(F)(F)F (single isomer, unassigned; (-)) [Example 214, (−)-4-(3-methoxy-4-{[4-methyl-2-(trifluoromethyl)phenoxy]methyl}phenyl)-2H,4H,5H,6H,7H-pyrazolo[3,4-b]pyridin-6-one] |
| ≥ 8 | ≤ 0.316 |  | COc1cc(C2CC(=O)Nc3n[nH]cc32)ccc1OCc1ccc(Cl)cc1C(F)(F)F (stereo not drawn) [Example 15, 4-(4-{[4-chloro-2-(trifluoromethyl)phenyl]methoxy}-3-methoxyphenyl)-2H,4H,5H,6H, 7H-pyrazolo[3,4-b]pyridin-6-one] |
|  | ≤ 0.316 | 0.01 to 0.1 | COc1cc(C2CC(=O)Nc3n[nH]cc32)ccc1OCc1ccc(F)cc1C(F)(F)F (stereo not drawn) [Example 9, 4-(4-{[4-fluoro-2-(trifluoromethyl)phenyl]methoxy}-3-methoxyphenyl)-2H,4H,5H,6H, 7H-pyrazolo[3,4-b]pyridin-6-one] |
| ≥ 8 | ≤ 0.316 |  | COc1cc(C2CC(=O)Nc3n[nH]cc32)ccc1OCc1cc(C)ccc1C(F)(F)F (stereo not drawn) [Example 32, 4-(3-methoxy-4-{[5-methyl-2-(trifluoromethyl)phenyl]methoxy}phenyl)-2H,4H,5H,6H,7H-pyrazolo[3,4-b]pyridin-6-one] |
| ≥ 8 | ≤ 0.316 |  | COc1cc(-c2cc(=O)[nH]c3n[nH]cc23)ccc1OCc1cccc(OC)c1C(F)(F)F [Example 177, 4-(3-methoxy-4-{[3-methoxy-2-(trifluoromethyl)phenyl]methoxy}phenyl)-2H, 6H, 7H-pyrazolo[3,4-b]pyridin-6-one] |
| ≥ 8 | ≤ 0.316 |  | COc1ccc(C(F)(F)F)c(COc2ccc(-c3cc(=O)[nH]c4n[nH]cc34)cc2OC)c1 [Example 178, 4-(3-methoxy-4-{[5-methoxy-2-(trifluoromethyl)phenyl]methoxy}phenyl)-2H,6H,7H-pyrazolo[3,4-b]pyridin-6-one] |
| ≥ 8 | ≤ 0.316 |  | COc1cc(C2CC(=O)Nc3n[nH]cc32)ccc1OCc1ccccc1OC(F)(F)F (stereo not drawn) [Example 24, 4-(3-methoxy-4-{[2-(trifluoromethoxy)phenyl]methoxy}phenyl)-2H,4H,5H,6H,7H-pyrazolo[3,4-b]pyridin-6-one] |
| ≥ 8 | ≤ 0.316 |  | COc1cc(C2CC(=S)Nc3n[nH]cc32)ccc1OCc1ccccc1C(F)(F)F (stereo not drawn) [Example 166, 4-(3-methoxy-4-{[2-(trifluoromethyl)phenyl]methoxy}phenyl)-2H,4H,5H,6H,7H-pyrazolo[3,4-b]pyridine-6-thione] |
